From US10206909B2, “3-(1H-pyrrolo[2,3-B]pyridin-2-yl)-1H-pyrazolo[4,3-B]pyridines and therapeutic uses thereof” (Samumed, LLC, priority 2015, dated 2019)

Tested on: primary human fibroblasts derived from IPF patients (LL29 cells)
Experiment: Inhibition of the fibrotic process: αSMA staining in TGF-β1 treated fibroblasts
Assay type: cell-based
Conditions: Fibroblast; for EC50: 96 h, LL29 cells, TGF-β1 20 ng/mL, 4 days, % αSMA positive cells; for inhibition at 10 µM: given where EC50 >10 μM, LL29, αSMA, read-out: percent inhibition at 10 μM
Description: Representative compounds were screened using primary human fibroblasts (derived from IPF patients) treated with TGF-β1 to determine their ability to inhibit the fibrotic process.
Human Fibroblast Cell Culture: Primary human fibroblasts derived from IPF patients (LL29 cells) [^1Xiaoqiu Liu, et. al., “Fibrotic Lung Fibroblasts Show Blunted Inhibition by cAMP Due to Deficient cAMP Response Element-Binding Protein Phosphorylation”, Journal of Pharmacology and Experimental Therapeutics (2005), 315(2), 678-687; ^2Watts, K. L., et. al., “RhoA signaling modulates cyclin D1 expression in human lung fibroblasts; implications for idiopathic pulmonary fibrosis”, Respiratory Research (2006), 7(1), 88] were obtained from American Type Culture Collection (ATCC) and expanded in F12 medium supplemented with 15% Fetal Bovine Serum and Penicillin/Streptomycin.
Compound Screening: Each compound was dissolved in DMSO as a 10 mM stock and used to prepare compound source plates. Serial dilution (1:2, 11-point dose-response curves from 10 μM to […]) and compound transfer was performed using the ECHO 550 (Labcyte, Sunnyvale, Calif.) into 384-well clear bottom assay plates (Greiner Bio-One) with appropriate DMSO backfill for a final DMSO concentration of 0.1%. LL29 cells are plated at 1,500 cells/well in 80 μL/well F12 medium supplemented with 1% Fetal Bovine Serum. One hour after addition of the cells, TGF-β1 (Peprotech; 20 ng/mL) was added to the plates to induce fibrosis (ref. 1 and 2 above). Wells treated with TGF-β1 and containing DMSO were used as controls. Cells were incubated at 37° C. and 5% CO2 for 4 days. Following incubation for 4 days, SYTOX green nucleic acid stain (Life Technologies [Thermo Fisher Scientific]) was added to the wells at a final concentration of 1 μM and incubated at room temperature for 30 min. Cells were then fixed using 4% formaldehyde (Electron Microscopy Sciences), washed 3 times with PBS followed by blocking and permeabilization using 3% Bovine Serum Albumin (BSA; Sigma) and 0.3% Triton X-100 (Sigma) in PBS. Cells were then stained with antibody specific to α-smooth muscle actin (αSMA; Abcam) (ref. 1 and 2 above) in 3% Bovine Serum Albumin (BSA; Sigma) and 0.3% Triton X-100 (Sigma) in PBS, and incubated overnight at 4° C. Cells were then washed 3 times with PBS, followed by incubation with Alexa Flor-647 conjugated secondary antibody (Life Technologies [Thermo Fisher Scientific]) and DAPI at room temperature for 1 hour. Cells were then washed 3 times with PBS and plates were sealed for imaging. αSMA staining was imaged by excitation at 630 nm and emission at 665 nm and quantified using the Compartmental Analysis program on the CellInsight CX5 (Thermo Scientific). Dead or apoptotic cells were excluded from analysis based on positive SYTOX green staining. % of total cells positive for αSMA were counted in each well and normalized to the average of 11 wells treated with TGF-β1 on the same plate using Dotmatics' Studies Software. The normalized averages (fold change over untreated) of 3 replicate wells for each compound concentration were used to create dose-responses curves and EC50 values were calculated using non-linear regression curve fit in the Dotmatics' Studies Software. For EC50 of >10 μM, the percent inhibition at 10 μM is provided.

Compound | EC50 [nM] | inhibition at 10 µM [%]
Oc1cncc(-c2ccc3[nH]nc(-c4cc5c(-c6ccc(F)cc6)ccnc5[nH]4)c3n2)c1 [Compound 533, 5-(3-(4-(4-Fluorophenyl)-1H-pyrrolo[2,3-b]pyridin-2-yl)-1H-pyrazolo[4,3-b]pyridin-5-yl)pyridin-3-ol] | > 10000 | 43
Fc1ccc(-c2ccnc3[nH]c(-c4n[nH]c5ccc(-c6cncnc6)nc45)cc23)cc1 [Compound 55, 3-(4-(4-Fluorophenyl)-1H-pyrrolo[2,3-b]pyridin-2-yl)-5-(pyrimidin-5-yl)-1H-pyrazolo[4,3-b]pyridine] | > 10000 | 0
c1ccc(-c2ccc3[nH]nc(-c4cc5c(N6CCCCC6)ccnc5[nH]4)c3n2)nc1 [Compound 196, 3-(4-(Piperidin-1-yl)-1H-pyrrolo[2,3-b]pyridin-2-yl)-5-(pyridin-2-yl)-1H-pyrazolo[4,3-b]pyridine] | 2050 | 
c1cncc(-c2ccnc3[nH]c(-c4n[nH]c5ccc(-c6ccncc6)nc45)cc23)c1 [Compound 102, 3-(4-(Pyridin-3-yl)-1H-pyrrolo[2,3-b]pyridin-2-yl)-5-(pyridin-4-yl)-1H-pyrazolo[4,3-b]pyridine] | > 10000 | 0
O=C(Cc1ccccc1)Nc1cncc(-c2ccc3[nH]nc(-c4cc5c(-c6ccoc6)ccnc5[nH]4)c3n2)c1 [Compound 318, N-(5-(3-(4-(Furan-3-yl)-1H-pyrrolo[2,3-b]pyridin-2-yl)-1H-pyrazolo[4,3-b]pyridin-5-yl)pyridin-3-yl)-2-phenylacetamide] | > 10000 | 25.7
CC(C)CC(=O)Nc1cncc(-c2ccc3[nH]nc(-c4cc5c(-c6ccccc6F)ccnc5[nH]4)c3n2)c1 [Compound 58, N-(5-(3-(4-(2-Fluorophenyl)-1H-pyrrolo[2,3-b]pyridin-2-yl)-1H-pyrazolo [4,3-b]pyridin-5-yl)pyridin-3-yl)-3-methylbutanamide] | > 10000 | 18.2
c1csc(-c2ccnc3[nH]c(-c4n[nH]c5ccc(-c6cncc(OC7CCCCC7)c6)nc45)cc23)c1 [Compound 703, 5-(5-(Cyclohexyloxy)pyridin-3-yl)-3-(4-(thiophen-2-yl)-1H-pyrrolo[2,3-b]pyridin-2-yl)-1H-pyrazolo[4,3-b]pyridine] | 1620 | 
CC(C)(C)C(=O)Nc1cncc(-c2ccc3[nH]nc(-c4cc5c(-c6cccc(F)c6)ccnc5[nH]4)c3n2)c1 [Compound 8, N-(5-(3-(4-(3-Fluorophenyl)-1H-pyrrolo[2,3-b]pyridin-2-yl)-1H-pyrazolo [4,3-b]pyridin-5-yl)pyridin-3-yl)pivalamide] | 1100 | 
O=C(Nc1cncc(-c2ccc3[nH]nc(-c4cc5c(-c6ccc(F)cc6)ccnc5[nH]4)c3n2)c1)c1ccccc1 [Compound 39, N-(5-(3-(4-(4-Fluorophenyl)-1H-pyrrolo[2,3-b]pyridin-2-yl)-1H-pyrazolo [4,3-b]pyridin-5-yl)pyridin-3-yl)benzamide] | 7790 | 
O=C(Nc1cncc(-c2ccc3[nH]nc(-c4cc5cccnc5[nH]4)c3n2)c1)C1CCCCC1 [Compound 275, N-(5-(3-(1H-Pyrrolo[2,3-b]pyridin-2-yl)-1H-pyrazolo[4,3-b]pyridin-5-yl)pyridin-3-yl)cyclohexanecarboxamide] | > 10000 | 0
O=C(Nc1cncc(-c2ccc3[nH]nc(-c4cc5c(-c6ccccc6F)ccnc5[nH]4)c3n2)c1)C1CC1 [Compound 76, N-(5-(3-(4-(2-Fluorophenyl)-1H-pyrrolo[2,3-b]pyridin-2-yl)-1H-pyrazolo [4,3-b]pyridin-5-yl)pyridin-3-yl)cyclopropanecarboxamide] | 5260 | 
Fc1cccc(-c2ccnc3[nH]c(-c4n[nH]c5ccc(-c6cccnc6)nc45)cc23)c1 [Compound 4, 3-(4-(3-Fluorophenyl)-1H-pyrrolo[2,3-b]pyridin-2-yl)-5-(pyridin-3-yl)-1H-pyrazolo[4,3-b]pyridine] | 144 | 
c1csc(-c2ccnc3[nH]c(-c4n[nH]c5ccc(-c6cncnc6)nc45)cc23)c1 [Compound 363, 5-(Pyrimidin-5-yl)-3-(4-(thiophen-2-yl)-1H-pyrrolo[2,3-b]pyridin-2-yl)-1H-pyrazolo[4,3-b]pyridine] | 546 | 
c1cc(N2CCCCC2)c2cc(-c3n[nH]c4ccc(C5CCNCC5)nc34)[nH]c2n1 [Compound 601, 3-(4-(Piperidin-1-yl)-1H-pyrrolo[2,3-b]pyridin-2-yl)-5-(piperidin-4-yl)-1H-pyrazolo[4,3-b]pyridine] | > 10000 | 20.1
Cc1ccncc1-c1ccc2[nH]nc(-c3cc4c(-c5ccc(F)cc5)ccnc4[nH]3)c2n1 [Compound 33, 3-(4-(4-Fluorophenyl)-1H-pyrrolo[2,3-b]pyridin-2-yl)-5-(4-methylpyridin-3-yl)-1H-pyrazolo[4,3-b]pyridine] | > 10000 | 2.9
CN(C)c1cncc(-c2ccc3[nH]nc(-c4cc5c(-c6ccoc6)ccnc5[nH]4)c3n2)c1 [Compound 315, 5-(3-(4-(Furan-3-yl)-1H-pyrrolo[2,3-b]pyridin-2-yl)-1H-pyrazolo[4,3-b]pyridin-5-yl)-N,N-dimethylpyridin-3-amine] | 5520 | 
Fc1ccc(-c2ccnc3[nH]c(-c4n[nH]c5ccc(-c6cncc(CN7CCC(F)(F)C7)c6)nc45)cc23)cc1 [Compound 54, 5-(5-((3,3-Difluoropyrrolidin-1-yl)methyl)pyridin-3-yl)-3-(4-(4-fluorophenyl)-1H-pyrrolo[2,3-b]pyridin-2-yl)-1H-pyrazolo[4,3-b]pyridine] | 374 | 
Cn1cc(-c2ccc3[nH]nc(-c4cc5cccnc5[nH]4)c3n2)cn1 [Compound 652, 5-(1-Methyl-1H-pyrazol-4-yl)-3-(1H-pyrrolo[2,3-b]pyridin-2-yl)-1H-pyrazolo[4,3-b]pyridine] | 1210 | 
c1cc(N2CCCCC2)c2cc(-c3n[nH]c4ccc(-c5cncc(CN6CCCCC6)c5)nc34)[nH]c2n1 [Compound 183, 3-(4-(Piperidin-1-yl)-1H-pyrrolo[2,3-b]pyridin-2-yl)-5-(5-(piperidin-1-ylmethyl)pyridin-3-yl)-1H-pyrazolo[4,3-b]pyridine] | > 10000 | 0
c1csc(-c2ccnc3[nH]c(-c4n[nH]c5ccc(-c6ccncc6)nc45)cc23)c1 [Compound 354, 5-(Pyridin-4-yl)-3-(4-(thiophen-2-yl)-1H-pyrrolo[2,3-b]pyridin-2-yl)-1H-pyrazolo[4,3-b]pyridine] | 2250 | 
Fc1ccccc1-c1ccnc2[nH]c(-c3n[nH]c4ccc(-c5cncc(CNCc6ccccc6)c5)nc34)cc12 [Compound 80, N-Benzyl-1-(5-(3-(4-(2-fluorophenyl)-1H-pyrrolo[2,3-b]pyridin-2-yl)-1H-pyrazolo[4,3-b]pyridin-5-yl)pyridin-3-yl)methanamine] | 1190 | 
Fc1ccccc1-c1ccnc2[nH]c(-c3n[nH]c4ccc(-c5ccccn5)nc34)cc12 [Compound 84, 3-(4-(2-Fluorophenyl)-1H-pyrrolo[2,3-b]pyridin-2-yl)-5-(pyridin-2-yl)-1H-pyrazolo[4,3-b]pyridine] | > 10000 | 0
Fc1cccc(-c2ccnc3[nH]c(-c4n[nH]c5ccc(-c6cncc(OCc7ccccc7)c6)nc45)cc23)c1 [Compound 518, 5-(5-(Benzyloxy)pyridin-3-yl)-3-(4-(3-fluorophenyl)-1H-pyrrolo[2,3-b]pyridin-2-yl)-1H-pyrazolo[4,3-b]pyridine] | 2450 | 
